The source of these data is patent publication US10442833B1 (KING SAUD UNIVERSITY, priority 2018, dated 2019).

Converted amounts (≈) assume the structure as drawn.

Test [1] concerns Absidia corymbifera (RCMB 02564). In words: Agar well diffusion, Absidia corymbifera. Format: cell-based. The note with it: Reference Drug, 30 μg/mL; well diameter 6 mm; 37° C., 18 to 24 h. As to the method: (§1) Antimicrobial tests were carried out by agar well diffusion according to the National Committee for Clinical Laboratory Standards (NCCLS) criteria.
(§2) Bacterial and fungal suspensions were prepared at 0.5 McFarland standard turbulence in a volume of 100 μL and were cultivated on Mueller-Hinton agar and Sabouraud dextrose media punched with 6-mm diameter wells for the bacteria and fungi, respectively. Then, 100 μl of 10% tested sample was added to the wells, while 10% DMSO was used as the negative control. Ampicillin, gentamicin, and amphotericin B (30 μg/mL) were used as standard agents against the Gram-positive bacteria, Gram-negative bacteria, and fungi, respectively. After incubation of the plates at 37° C. for 18 to 24 h, the antimicrobial activity was evaluated by measuring the diameter of the inhibition zones. Each test was performed in triplicate and the average of the results was calculated. The extraction solvents were used as negative controls (NCCLS, 2002; 2004).

The test system of test [2] is Geotricum candidum (RCMB 05007). Briefly: Agar well diffusion, Geotricum candidum. Format: cell-based. As to conditions: Reference Drug, 30 μg/mL; well diameter 6 mm; 37° C., 18 to 24 h. As to the method: as §1, §2
(In general: Agar diffusion results depend on both activity and mobility in agar.)

Another test relates to Candida albicans (RCMB). In words: Agar well diffusion, Candida albicans. Format: cell-based. As to conditions: Reference Drug, 30 μg/mL; well diameter 6 mm; 37° C., 18 to 24 h. Here is the method:
as §1, §2

The subject of test [3] is Staphylococcus aureus (RCMB 010027). Briefly: Agar well diffusion, Staphylococcus aureus. As to conditions: Reference Drug, 30 μg/mL; well diameter 6 mm; 37° C., 18 to 24 h; in mm. Format: cell-based. Here is the method: (§3) Antimicrobial tests were carried out by agar well diffusion according to the National Committee for Clinical Laboratory Standards (NCCLS) criteria. […] Then, 100 μl of 10% tested sample was added to the wells, while 10% DMSO was used as the negative control. […] Each test was performed in triplicate and the average of the results was calculated. The extraction solvents were used as negative controls (NCCLS, 2002; 2004).

The subject of test [4] is Staphylococcus epidermidis (RCMB 010024). In words: Agar well diffusion, Staphylococcus epidermidis. Format: cell-based. As to conditions: Reference Drug, 30 μg/mL; well diameter 6 mm; 37° C., 18 to 24 h; in mm. Here is the method:
as §3

Test [5] deals with Streptococcus pyogenes (RCMB 010015). Briefly: Agar well diffusion, Streptococcus pyogenes. Format: cell-based. The note with it: Reference Drug, 30 μg/mL; well diameter 6 mm; 37° C., 18 to 24 h; in mm. As to the method:
as §3

The next test relates to Hela cells. As to conditions: reported by Al-Massarani et al., Molecules 2017; cited from earlier work.
In a further test the test system is A549 cells. As to conditions: reported by Al-Massarani et al., Molecules 2017; cited from earlier work.
The test system of test [6] is MDA (breast cancer cells). As to conditions: reported by Al-Massarani et al., Molecules 2017; cited from earlier work.
Test [7] concerns Proteous vulgaris (RCMB 010085). Briefly: Agar well diffusion, Proteous vulgaris. Format: cell-based. As to conditions: Reference Drug, 30 μg/mL; well diameter 6 mm; 37° C., 18 to 24 h; in mm. As to the method: as §3
The subject of test [8] is Klebsiella pneumoniae (RCMB 0010093). In words: Agar well diffusion, Klebsiella pneumoniae. Format: cell-based. The note with it: Reference Drug, 30 μg/mL; well diameter 6 mm; 37° C., 18 to 24 h; in mm. As to the method:
as §3

Test [9] deals with Salmonella enteritidis (RCMB 010084). In words: Agar well diffusion, Salmonella enteritidis. The note with it: Reference Drug, 30 μg/mL; well diameter 6 mm; 37° C., 18 to 24 h; in mm. Format: cell-based. As to the method:
as §3

With `C[C@@H]1[C@H](O)[C@@H](C)/C=C/C=C/C=C/C=C/C=C/C=C/C=C/[C@H](O[C@@H]2O[C@H](C)[C@@H](O)[C@H](N)[C@@H]2O)C[C@@H]2O[C@](O)(C[C@@H](O)C[C@@H](O)[C@H](O)CC[C@@H](O)C[C@@H](O)CC(=O)O[C@H]1C)C[C@H](O)[C@H]2C(=O)O` [Amphotericin B], the entries for the “Zone of Inhibition” value (in test [1]; in [2]; in the test on Candida albicans (RCMB)) were 23.0, 27.0 and 25.7, respectively.
Turning to `CC1(C)S[C@@H]2[C@H](NC(=O)[C@H](N)c3ccccc3)C(=O)N2[C@H]1C(=O)O` [Ampicillin], the “Zone of Inhibition” value in test [3] stood at 27.3; in [4], 25.0; in test [5] it was 26.3.
With `C[C@H]1[C@H](C)CC[C@]2(C(=O)O)CC[C@]3(C)C(=CC[C@@H]4[C@@]5(C)CC[C@H](O)C(C)(C)[C@@H]5CC[C@]43C)[C@H]12` [ursolic acid], the IC50 – broadly, the concentration that inhibits the measured activity by half – in the test on Hela cells was 50.2 mg/L (≈ 110 µM); in the test on A549 cells it was 65.2 mg/L (≈ 143 µM); in test [6], 47.76 mg/L (≈ 105 µM).
As for Gentamycin, the “Zone of Inhibition” value came to 23.4 in test [7], 26.4 in test [8] and 25.2 in [9].
